Consider 21 compounds from article PMC7835927, “Natural Polyhydroxy Flavonoids, Curcuminoids, and Synthetic Curcumin Analogs as α7 nAChRs Positive Allosteric Modulators” (International Journal of Molecular Sciences, 2021).

Read-outs that look alike come from different tables or passages of the source.

One data set deals with T1, human α7 nAChRs (Homo sapiens, UniProt P36544).
T1 construct: expressed in transfected cells; host or cells: Xenopus laevis oocytes injected with in vitro transcribed capped cRNA (pSP64T derivatives)
T1 sequence (P36544 23-502): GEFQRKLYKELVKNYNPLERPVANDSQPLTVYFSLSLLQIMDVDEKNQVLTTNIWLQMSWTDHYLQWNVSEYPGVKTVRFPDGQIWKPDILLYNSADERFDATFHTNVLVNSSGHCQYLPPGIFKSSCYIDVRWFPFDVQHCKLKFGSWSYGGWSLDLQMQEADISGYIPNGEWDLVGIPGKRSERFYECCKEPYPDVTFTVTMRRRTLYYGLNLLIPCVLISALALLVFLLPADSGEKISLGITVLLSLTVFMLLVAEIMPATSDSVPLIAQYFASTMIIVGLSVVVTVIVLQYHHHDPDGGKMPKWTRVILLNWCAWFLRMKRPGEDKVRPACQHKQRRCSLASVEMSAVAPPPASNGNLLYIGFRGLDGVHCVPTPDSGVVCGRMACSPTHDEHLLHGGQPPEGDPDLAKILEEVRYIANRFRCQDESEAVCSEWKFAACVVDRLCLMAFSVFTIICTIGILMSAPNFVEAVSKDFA
The data set is described as follows: Two-electrode voltage-clamp in Xenopus oocytes expressing human α7 nAChRs: potentiation of ACh-evoked currents. Type of data set: cell-based. To be noted: for activity at 10 µM: read-out: % ± s.e. Current vs. ACh [200 µM]; for maximal potentiating effect: concentration-response, co-applied with ACh 200 µM, estimated; for maximal potentiating effect / nH of ACh concentration-response curve / Imax of ACh concentration-response curve: Hill fit; for % ± s.e. Current vs. ACh [200 µM]: Table 1; for % ± s.e. Current vs. ACh [200 µM] / % ± s.e. Current Vs. ACh [200 µM]: compound 10 µM co-applied with 200 µM ACh, −80 mV, normalized to ACh alone, 6–10 oocytes; for % ± s.e. Current Vs. ACh [200 µM]: Table 2; for PAM properties / effect on ACh-induced currents, in words: 10 µM screening. On the procedure: The obtained compounds were screened to determine their capacity to modulate the α7 nAChR activity (Table 2).
All human nAChR cDNAs were cloned in derivatives of the pSP64T vector containing part of the pBluescript polylinker. Capped mRNA was synthesized in vitro using SP6 RNA polymerase, the mMESSAGEmMACHINE kit from Ambion (Thermo Fisher Scientific, Madrid, Spain), and the pSP64T derivatives mentioned above. Defoliculated Xenopus laevis oocytes were injected with 5 ng of each subunit cRNA in 50 nL of sterile water. All experiments were performed within 2–3 days after cRNA injection. […] Barium, instead of calcium, was used as the extracellular divalent cation to avoid the presence of calcium-activated chloride currents. […] All experiments were performed at 22 °C. The holding potential was usually −80 mV. Current records were measured with Clampfit 10.0 (MDS Analytical Technologies, Sunnyvale, CA, USA). […] Data are expressed as mean ± SEM. All chemicals were purchased from Sigma-Aldrich (St. Louis, MO, USA).

Data set [1] is described as follows: Solubility as noted in the concentration-response experiments. Type of data set: physicochemical. Particulars: hindered the use of higher concentrations in the curves. On the procedure: Figure 1 Characterization of curcumin (12) and two curcuminoids (compounds 13 and 14). (a–c) Ionic currents recorded in representative oocytes expressing human α7 nAChRs. […] All currents were recorded at a holding potential of –80 mV. […] Continuous lines represent the fit to the Hill equation. […] Thus, maximal potentiating effects were estimated as 11 ± 3-, 5.5 ± 0.3-, and 5.5 ± 1.0-fold for compounds 12, 13, and 14, respectively. […] Data were taken from 3–7 oocytes from at least 2 donors.

The next data set relates to α7 nAChRs. To be noted: cited from earlier work; for reported profile on ACh-evoked α7 nAChR currents in oocytes: oocytes expressing α7 nAChRs.
Data set [2] can be described thus: Chemical stability in H2O/acetonitrile 20/80 checked by HPLC. Format: physicochemical. To be noted: period of two months. From the text: To discard any possible artefacts due to decomposition of the compounds in solution, the chemical stability of the best compounds 17, 23, and 25 was checked in aqueous mixtures of H2O/acetonitrile 20/80 for a period of two months.

Where [3] appears, read: read-out: EC50 of potentiating effect.
Setting [4] is: in the presence of compound 13 vs absence.

With `O=C1C[C@@H](c2ccc(O)c(O)c2)Oc2cc(O)cc(O)c21` [Compound 8, Eriodictyol], the activity at 10 µM on human α7 nAChRs worked out at 108 ± 2.5%.

Take `COc1cc(/C=C/C(=O)CC(=O)/C=C/c2ccc(O)c(OC)c2)ccc1O` [Compound 12, Curcumin]: on human α7 nAChRs, the maximal potentiating effect is 11 ± 3 fold and the activity at 10 µM is 148 ± 43%. Besides, the “enhancement of ACh-induced currents” value on human α7 nAChRs (maximal effect from concentration-response, only approximated) was approximately 1100%. The concentration for a half-maximal effect (EC50) (usually the concentration that produces a half-maximal response) at human α7 nAChRs (setting [3]) amounted to 85 ± 35 µM. In data set [1], the “solubility, in words” value is “Limited solubility”. Further, the “reported type of α7 nAChR modulation” value in the data set on α7 nAChRs is “Type II PAM”.

Regarding `O=C1c2c(O)cc(O)cc2OC(c2ccc(O)c(O)c2)C1O` (stereo not drawn) [Compound 10, Taxifolin], the activity at 10 µM on human α7 nAChRs was found to be 107 ± 5.5%.

For `O=c1c(O)c(-c2ccc(O)cc2)oc2cc(O)cc(O)c12` [Compound 6, Kaempferol], the activity at 10 µM on human α7 nAChRs amounted to 155 ± 5%.

In the case of `O=c1c(-c2ccc(O)cc2)coc2cc(O)cc(O)c12` [Compound 4, Genistein], on human α7 nAChRs, the activity at 10 µM worked out at 154 ± 10%. The “reported profile on ACh-evoked α7 nAChR currents in oocytes” value in the data set on α7 nAChRs was “PAM profile”.

With `COc1cc(/C=C/C(O)=C/C(=O)/C=C/c2ccc(O)cc2)ccc1O` [Compound 13, Demethoxycurcumin], on human α7 nAChRs, the EC50 is 4.9 µM, the “% ± s.e. Current vs. ACh [200 µM]” value is 408 ± 18%, the maximal potentiating effect is given as 5.5 ± 0.3 fold and the activity at 10 µM turned out to be 408%. For the same compound, the “nH of ACh concentration-response curve” value on human α7 nAChRs (in the presence of 3 µM 13) came out at 2.36. For the same compound, at human α7 nAChRs (in the presence of 3 µM 13, normalized to control peak current with 1 mM ACh), the “Imax of ACh concentration-response curve” value is on record as 2.70. Also, on human α7 nAChRs (setting [4]), the “increase in apparent efficacy of ACh” value came to 2 fold and the “leftward shift of ACh dose-response curve” value is 3 fold. The “solubility, in words” value in data set [1] was “Limited solubility”.

As to `COc1ccc(/C=C/C(=O)/C=C(O)/C=C/c2ccc(OC)cc2OC)c(OC)c1` [Compound 17, (1E,4Z,6E)-1,7-Bis(2,4-dimethoxyphenyl)-5-hydroxyhepta-1,4,6-trien-3-one], the “chemical stability in solution (HPLC retention times and purity)” value (from here on “chemical stability in solution”) in data set [2] is “no alteration on the retention times and purity”.

Regarding `O=C(CCc1ccc(O)cc1)c1c(O)cc(O)cc1O` [Compound 11, Phloretin], at human α7 nAChRs, the activity at 10 µM is 231 ± 0.5%.

As to `O=C(/C=C(\O)CCc1ccc(O)cc1O)CCc1ccc(O)cc1O` [Compound 25, (Z)-1,7-Bis(2,4-dihydroxyphenyl)-5-hydroxyhept-4-en-3-one], the “% ± s.e. Current Vs. ACh [200 µM]” value at human α7 nAChRs came out at 251 ± 24%. Besides, the “chemical stability in solution” value in data set [2] was “no alteration on the retention times and purity”.

As to `O=c1c(O)c(-c2ccc(O)c(O)c2)oc2c(O)c(O)cc(O)c12` [Compound 5, Gossypetin], the activity at 10 µM at human α7 nAChRs came out at 115 ± 2%.

As to “(1E, 4Z, 6E)-1-(2,4-Dimethoxyphenyl)-7-(2,5-dimethoxyphenyl)-5-hydroxyhepta-1,4,6-trien-3-one [Compound 21]”, at human α7 nAChRs (ACh 200 µM), the “PAM properties / effect on ACh-induced currents, in words” value (shortened to “PAM properties / effect”) is recorded as “No significant PAM properties”. The “% ± s.e. Current Vs. ACh [200 µM]” value at human α7 nAChRs was determined as 107 ± 4%.

As to `O=c1cc(-c2ccc(O)cc2)oc2cc(O)cc(O)c12` [Compound 1, Apigenin], the activity at 10 µM on human α7 nAChRs was found to be 108 ± 4%.

For the compound “(1E, 4Z, 6E) -1-(2,4-Dimethoxyphenyl)-7-(2-fluoro-4-methoxyphenyl)-5-hydroxyhepta-1,4,6 -trien-3-one [Compound 22]”, the “PAM properties / effect” value at human α7 nAChRs (ACh 200 µM) is “increases them only slightly”. Besides, at human α7 nAChRs, the “% ± s.e. Current Vs. ACh [200 µM]” value was found to be 153 ± 17%.

On to `COc1ccc(CCC(=O)/C=C(\O)CCc2ccc(OC)cc2OC)c(OC)c1` [Compound 23, (Z)-1,7-Bis(2,4-dimethoxyphenyl)-5-hydroxyhept-4-en-3-one], for which the “% ± s.e. Current Vs. ACh [200 µM]” value on human α7 nAChRs was found to be 498 ± 7%. Besides, the “Maximal activation over the control” value at human α7 nAChRs (already observed at 1 µM, ACh 200 µM) is “about 3 fold”. The EC50 on human α7 nAChRs (setting [3]) worked out at 0.44 ± 0.28 µM. In addition, in data set [2], the “chemical stability in solution” value was “no alteration on the retention times and purity”.

As for `O=C1C[C@@H](c2ccc(O)cc2)Oc2cc(O)cc(O)c21` [Compound 9, Naringenin], the activity at 10 µM on human α7 nAChRs stood at 105 ± 3%.

On to `O=c1c(O)c(-c2cc(O)c(O)c(O)c2)oc2cc(O)cc(O)c12` [Compound 7, Myricetin], for which the activity at 10 µM at human α7 nAChRs came to 97 ± 6%.

As for `O=C(/C=C/c1ccc(O)cc1)CC(=O)/C=C/c1ccc(O)cc1` [Compound 14, Bisdemethoxycurcumin], on human α7 nAChRs, the “% ± s.e. Current vs. ACh [200 µM]” value was 469 ± 42%, the maximal potentiating effect was 5.5 ± 1.0 fold and the activity at 10 µM is 469%. In addition, the EC50 on human α7 nAChRs (setting [3]) amounted to 6.9 ± 3.1 µM. The “solubility, in words” value in data set [1] is listed as “Limited solubility”.

For `CC(=O)OCC[N+](C)(C)C` [ACh, acetylcholine], the “nH of ACh concentration-response curve” value at human α7 nAChRs (control conditions (ACh alone)) stood at 1.25. For the same compound, at human α7 nAChRs (control conditions (ACh alone), normalized to peak current with 1 mM ACh), the “Imax of ACh concentration-response curve” value amounted to 1.25.

For `O=c1c(O)c(-c2ccc(O)c(O)c2)oc2cc(O)cc(O)c12` [Compound 2, Quercetin], on human α7 nAChRs, the “% ± s.e. Current vs. ACh [200 µM]” value came to 130 ± 10%. For the same compound, the “reported profile on ACh-evoked α7 nAChR currents in oocytes” value with α7 nAChRs is recorded as “PAM profile”.

Take `O=c1cc(-c2ccc(O)c(O)c2)oc2cc(O)cc(O)c12` [Compound 3, Luteolin]: the activity at 10 µM at human α7 nAChRs stood at 125 ± 5.5%.

Take “(Z)-1-(2,4-Dimethoxyphenyl)-7-(2,5-dimethoxyphenyl)-5-hydroxyhept-4-en-3-one [Compound 24]”: the “PAM properties / effect” value on human α7 nAChRs (ACh 200 µM) was “No significant PAM properties”. On human α7 nAChRs, the “% ± s.e. Current Vs. ACh [200 µM]” value was 53.5 ± 3.5%.
